Experimental data: US8802597B2, “Herbicidal pyrimidines” (E I du Pont de Nemours and Company, priority 2003, dated 2014)
Where two headings read alike, the source gives them in different places.

What was measured:
Experiment in all cases: Test C pre/postemergence
Format in all cases: in vivo
[1] = test system: morningglory (Ipomoea coccinea); details: Ipomoea; for pest or weed control at 125 g/ha: 125 g ai/ha
Outline: (§1)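 Greenhouse pot test: seeds treated preemergence, or plants at 2–18 cm (1- to 4-leaf stage) treated postemergence, with compound in non-phytotoxic solvent plus surfactant. Visual rating versus untreated controls after 12–14 days, scale 0 (no effect) to 100 (complete control); dash means not tested.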

[2] = test system: Surinam grass (Brachiaria decumbens); details: Urochloa decumbens; for pest or weed control at 31 g/ha: 31 g ai/ha; for pest or weed control at 62 g/ha: 62 g ai/ha
Outline: as §1

[3] = test system: yellow nutsedge (Cyperus esculentus); details: Cyperus; for pest or weed control at 31 g/ha: 31 g ai/ha; for pest or weed control at 62 g/ha: 62 g ai/ha
Outline: as §1

[4] = test system: crabgrass (Digitaria sanguinalis); details: Digitaria sanguinalis; for pest or weed control at 31 g/ha: 31 g ai/ha; for pest or weed control at 62 g/ha: 62 g ai/ha; for pest or weed control at 125 g/ha: 125 g ai/ha
Outline: as §1

[5] = test system: cocklebur (Xanthium strumarium); details: Xanthium strumarium; for pest or weed control at 31 g/ha: 31 g ai/ha; for pest or weed control at 62 g/ha: 62 g ai/ha; for pest or weed control at 125 g/ha: 125 g ai/ha
Outline: as §1

[6] = test system: woolly cupgrass (Eriochloa villosa); details: Eriochloa villosa; for pest or weed control at 31 g/ha: 31 g ai/ha; for pest or weed control at 62 g/ha: 62 g ai/ha
Outline: as §1

[7] = post-emergence, Postemergence, read-out: Plant response rating (scale of 0 to 100), Surinam Grass
[8] = pre-emergence, Preemergence, scale 0 to 100, 0 no effect, 100 complete control, read-out: Plant response rating, Surinam Grass
[9] = post-emergence, Postemergence, read-out: Plant response rating (scale of 0 to 100), Nutsedge, Yellow
[10] = pre-emergence, Preemergence, scale 0 to 100, 0 no effect, 100 complete control, read-out: Plant response rating, Nutsedge, Yellow
[11] = post-emergence, Postemergence, read-out: Plant response rating (scale of 0 to 100), Crabgrass
[12] = pre-emergence, Preemergence, scale 0 to 100, 0 no effect, 100 complete control, read-out: Plant response rating, Crabgrass
[13] = post-emergence, Postemergence, read-out: Plant response rating (scale of 0 to 100), Cocklebur
[14] = pre-emergence, Preemergence, scale 0 to 100, 0 no effect, 100 complete control, read-out: Plant response rating, Cocklebur
[15] = post-emergence, Postemergence, read-out: Plant response rating (scale of 0 to 100), Cupgrass, Woolly
[16] = pre-emergence, Preemergence, scale 0 to 100, 0 no effect, 100 complete control, read-out: Plant response rating, Cupgrass, Woolly

Nc1nc(C2CC2)nc(C(=O)OCc2ccccc2)c1Cl [Compound 78, phenylmethyl 6-amino-5-chloro-2-cyclopropyl-4-pyrimidinecarboxylate]
pest or weed control at 125 g/ha ([1]; post-emergence, Postemergence, scale 0 to 100 (0 no effect, 100 complete control), read-out: Morningglory plant response rating): 100%
pest or weed control at 250 g/ha ([1]; post-emergence, Postemergence, 250 g ai/ha, scale 0 to 100, read-out: Plant response rating, Morningglory): 100%
pest or weed control at 16 g/ha ([1]; pre-emergence, Preemergence, 16 g ai/ha, scale 0 to 100, 0 no effect, 100 complete control, read-out: Plant response rating, Morningglory): 0%
pest or weed control at 31 g/ha ([1]; pre-emergence, Preemergence, 31 g ai/ha, scale 0 to 100, 0 no effect, 100 complete control, read-out: Plant response rating, Morningglory): 70%
pest or weed control at 62 g/ha ([1]; pre-emergence, Preemergence, 62 g ai/ha, scale 0 to 100, 0 no effect, 100 complete control, read-out: Plant response rating, Morningglory): 85%
pest or weed control at 125 g/ha ([1]; pre-emergence, Preemergence, scale 0 to 100, read-out: Plant response rating, Morningglory): 100%
pest or weed control at 125 g/ha ([2]; post-emergence, Postemergence, 125 g ai/ha, scale 0 to 100 (0 no effect, 100 complete control), read-out: Surinam Grass plant response rating): 55%
pest or weed control at 31 g/ha [2, 7]: 50%
pest or weed control at 62 g/ha [2, 7]: 55%
pest or weed control at 250 g/ha ([2]; post-emergence, Postemergence, 250 g ai/ha, scale 0 to 100, read-out: Plant response rating, Surinam Grass): 90%
pest or weed control at 16 g/ha ([2]; pre-emergence, Preemergence, 16 g ai/ha, scale 0 to 100, 0 no effect, 100 complete control, read-out: Plant response rating, Surinam Grass): 0%
pest or weed control at 31 g/ha [2, 8]: 0%
pest or weed control at 62 g/ha [2, 8]: 0%
pest or weed control at 31 g/ha [3, 9]: 0%
pest or weed control at 62 g/ha [3, 9]: 0%
pest or weed control at 125 g/ha ([3]; post-emergence, Postemergence, 125 g ai/ha, scale 0 to 100 (0 no effect, 100 complete control), read-out: Nutsedge, Yellow plant response rating): 0%
pest or weed control at 250 g/ha ([3]; post-emergence, Postemergence, 250 g ai/ha, scale 0 to 100, read-out: Plant response rating, Nutsedge, Yellow): 0%
pest or weed control at 16 g/ha ([3]; pre-emergence, Preemergence, 16 g ai/ha, scale 0 to 100, 0 no effect, 100 complete control, read-out: Plant response rating, Nutsedge, Yellow): 0%
pest or weed control at 31 g/ha [3, 10]: 0%
pest or weed control at 62 g/ha [3, 10]: 0%
pest or weed control at 31 g/ha [4, 11]: 55%
pest or weed control at 62 g/ha [4, 11]: 90%
pest or weed control at 125 g/ha ([4]; post-emergence, Postemergence, scale 0 to 100 (0 no effect, 100 complete control), read-out: Crabgrass plant response rating): 90%
pest or weed control at 250 g/ha ([4]; post-emergence, Postemergence, 250 g ai/ha, scale 0 to 100, read-out: Plant response rating, Crabgrass): 90%
pest or weed control at 16 g/ha ([4]; pre-emergence, Preemergence, 16 g ai/ha, scale 0 to 100, 0 no effect, 100 complete control, read-out: Plant response rating, Crabgrass): 0%
pest or weed control at 31 g/ha [4, 12]: 5%
pest or weed control at 62 g/ha [4, 12]: 40%
pest or weed control at 125 g/ha ([4]; pre-emergence, Preemergence, scale 0 to 100, read-out: Plant response rating, Crabgrass): 45%
pest or weed control at 31 g/ha [5, 13]: 90%
pest or weed control at 62 g/ha [5, 13]: 100%
pest or weed control at 125 g/ha ([5]; post-emergence, Postemergence, scale 0 to 100 (0 no effect, 100 complete control), read-out: Cocklebur plant response rating): 100%
pest or weed control at 250 g/ha ([5]; post-emergence, Postemergence, 250 g ai/ha, scale 0 to 100, read-out: Plant response rating, Cocklebur): 100%
pest or weed control at 16 g/ha ([5]; pre-emergence, Preemergence, 16 g ai/ha, scale 0 to 100, 0 no effect, 100 complete control, read-out: Plant response rating, Cocklebur): 55%
pest or weed control at 31 g/ha [5, 14]: 70%
pest or weed control at 62 g/ha [5, 14]: 90%
pest or weed control at 125 g/ha ([5]; pre-emergence, Preemergence, scale 0 to 100, read-out: Plant response rating, Cocklebur): 90%
pest or weed control at 31 g/ha [6, 15]: 50%
pest or weed control at 62 g/ha [6, 15]: 55%
pest or weed control at 250 g/ha ([6]; post-emergence, Postemergence, 250 g ai/ha, scale 0 to 100, read-out: Plant response rating, Cupgrass, Woolly): 90%
pest or weed control at 16 g/ha ([6]; pre-emergence, Preemergence, 16 g ai/ha, scale 0 to 100, 0 no effect, 100 complete control, read-out: Plant response rating, Cupgrass, Woolly): 0%
pest or weed control at 31 g/ha [6, 16]: 0%
pest or weed control at 62 g/ha [6, 16]: 0%
pest or weed control at 125 g/ha ([6]; pre-emergence, Preemergence, 125 g ai/ha, scale 0 to 100, read-out: Plant response rating, Cupgrass, Woolly): 10%
